From patent US20230414626A1, “INDUCTION OF FERROPTOSIS FOR CANCER THERAPY” (Memorial Sloan Kettering Cancer Center, priority 2020, published 2023)

Test system: PTEN-defective PC-3 prostate cancer xenograft tumors
Assay: In vivo xenograft mouse model, PC-3
Settings: PC-3 xenograft, nu/nu mice; IKE 50 mg/kg daily i.p.; CCI-779 2 mg/kg daily i.p.
Procedure: FIG. 6 A-F. Combination of mTORC1 inhibition with ferroptosis induction leads to tumor regression in vivo. (A) CRISPR/Cas9-mediated, Dox-induced GPX4 knockout (GPX4-iKO) in BT474 cells, monitored by western blot. (B) Images of resected tumors from mice xenografted with GPX4-iKO BT474 cells. Groups of mice were treated with CCI-779 and/or Dox as indicated (n=6 per group). See Methods for detail. (C) Representative haematoxylin and eosin (H&E) and immunostaining images of GPX4, Ki67, PTGS2 and pS235/236 S6, all counterstained with haematoxylin (blue), are shown from sections of xenografted tumors. Scale bar, 50 μm. (D) Growth curves of BT474 tumors of each group. Data are plotted as mean±s.d., n=6, on the linear scale for actual tumor size (upper panel) or the log 2 scale for the fold change of tumors (bottom panel). (E) Growth curves of PC-3 tumors of each group (n=6), on the linear scale for actual tumor size (upper panel) or the log 2 scale for the fold change of tumor size (bottom panel). […]
FIG. 13 A-E. Combination of mTORC1 inhibition with ferroptosis induction leads to tumor regression. […] (B) BT474 tumor volume was measured every day for each mouse. […] (E) PC-3 tumor volume was measured every day for each mouse. […]
For PC-3 tumor models, male athymic nu/nu mice aged 5 to 6 weeks were injected in the right flank with 5×10^6 PC-3 cells. Tumors were measured with callipers daily. […]

For CC(C)Oc1ccc(C(=O)Cn2ccnc2)cc1-n1c(CN2CCN(C(=O)COc3ccc(Cl)cc3)CC2)nc2ccccc2c1=O [IKE, imidazole ketone erastin], the tumor growth was “no effects on tumor growth”.
